Results as given in patent US5932417A, “Method of screening compounds for controlling capacitative calcium ion entry into mammalian cells” (priority 1996, dated 1999).
“Also recorded” adds a separate entry of the source.

Assays:
[1] = tested on: CCE endogenous to COS cells; format: cell-based
Description: Intracellular Ca^2+ transients were measured in individual cells by fluorescence videomicroscopy using the Attofluor Digital Imaging and Photometry attachment of a Carl Zeiss Axiovert inverted microscope. Cells (COS-M6 or L) were grown on circular coverslips, rinsed and incubated with 5 μM Fura2/AM (Molecular Probes) in Hepes buffered saline (HPSS: 120 mM NaCl, 5.3 mM KCl, 0.8 mM MgSO4, 1.8 mM CaCl2, 11.1 mM glucose, 20 mM Hepes-Na, pH 7.4) at 37° C. for 30 min and then washed with HPSS twice at room temperature. The coverslips with the cells were then clamped into a circular open-bottom chamber and mounted onto the stage of the microscope. [Ca^2+ ]i in individual cells was monitored at room temperature exciting Fura2 alternatingly at 334 and 380 nm and recording emitted fluorescence at 520 nm. […] Data from 15 to 30 individual cells were thus collected per experiment and experiments were repeated until data from sufficient cells were collected to generate an ensemble average that was calculated after transfer into Microsoft Excel 5.0. […]
For assessment of the rate at which [Ca^2+ ]i falls after an initial stimulation with agonist, t=0 is the time of agonist addition; for assessment of rate of influx of Ca^2+ into cells in which Ca^2+ stores had been depleted by agonist, t=0 is the time of Ca^2+ readdition. t1/2 /values were obtained by fitting the function A=A°exp(-t·ln2/t1/2)+B to the data points shown. […]

[2] = tested on: endogenous TG-stimulated Ca2+ entry of COS cells; assay: Thapsigargin (store depletion)-stimulated Ca2+ entry in control COS cells; format: cell-based; details: 250 μM La3+, 500 nM TG, 1.8 mM Ca2+ added
Description: (§1) Intracellular Ca^2+ transients were measured in individual cells by fluorescence videomicroscopy using the Attofluor Digital Imaging and Photometry attachment of a Carl Zeiss Axiovert inverted microscope. Cells (COS-M6 or L) were grown on circular coverslips, rinsed and incubated with 5 μM Fura2/AM (Molecular Probes) in Hepes buffered saline (HPSS: 120 mM NaCl, 5.3 mM KCl, 0.8 mM MgSO4, 1.8 mM CaCl2, 11.1 mM glucose, 20 mM Hepes-Na, pH 7.4) at 37° C. for 30 min and then washed with HPSS twice at room temperature. The coverslips with the cells were then clamped into a circular open-bottom chamber and mounted onto the stage of the microscope. [Ca^2+ ]i in individual cells was monitored at room temperature exciting Fura2 alternatingly at 334 and 380 nm and recording emitted fluorescence at 520 nm. All reagents were diluted to their final concentrations in HPSS and applied to the cells by surface perfusion. The duration of exposure to each reagent mixture is indicated by the horizontal lines above the graphs depicting the changes in [Ca^2+ ]i as a function of time. […] Data from 15 to 30 individual cells were thus collected per experiment and experiments were repeated until data from sufficient cells were collected to generate an ensemble average that was calculated after transfer into Microsoft Excel 5.0. […]

Htrp3 [3] = molecular target: T1, Htrp3 (Homo sapiens, UniProt Q13507); format: cell-based; design: The full length cDNAs encoding the M5 muscarinic receptor (32), Htrp1 (29), Htrp3 and murine luteinizing hormone receptor; expressed in transfected cells; host or cells: COS-M6
T1 sequence (Q13507 1-848 isoform Q13507-3): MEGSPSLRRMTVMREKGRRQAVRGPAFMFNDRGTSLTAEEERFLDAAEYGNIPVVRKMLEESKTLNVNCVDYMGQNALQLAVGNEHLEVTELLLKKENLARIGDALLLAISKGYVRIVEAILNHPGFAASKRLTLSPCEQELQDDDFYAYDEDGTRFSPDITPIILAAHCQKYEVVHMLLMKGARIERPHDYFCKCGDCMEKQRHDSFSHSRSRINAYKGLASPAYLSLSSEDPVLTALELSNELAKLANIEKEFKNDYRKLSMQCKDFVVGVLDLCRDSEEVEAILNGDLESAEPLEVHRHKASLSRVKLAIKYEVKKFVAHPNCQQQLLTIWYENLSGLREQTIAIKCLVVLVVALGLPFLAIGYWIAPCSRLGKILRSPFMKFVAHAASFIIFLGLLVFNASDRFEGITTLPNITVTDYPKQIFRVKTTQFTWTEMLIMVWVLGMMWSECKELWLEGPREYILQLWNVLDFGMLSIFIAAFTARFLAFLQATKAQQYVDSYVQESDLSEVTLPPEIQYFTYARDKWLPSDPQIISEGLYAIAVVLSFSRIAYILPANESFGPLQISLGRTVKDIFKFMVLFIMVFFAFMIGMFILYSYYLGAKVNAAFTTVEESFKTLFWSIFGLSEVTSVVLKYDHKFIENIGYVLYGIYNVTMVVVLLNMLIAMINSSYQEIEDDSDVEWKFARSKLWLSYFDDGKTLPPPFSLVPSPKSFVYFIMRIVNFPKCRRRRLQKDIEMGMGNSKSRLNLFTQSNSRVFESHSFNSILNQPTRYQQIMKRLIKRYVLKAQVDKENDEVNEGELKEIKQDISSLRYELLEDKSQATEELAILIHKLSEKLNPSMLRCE
Description: Intracellular Ca^2+ transients were measured in individual cells by fluorescence videomicroscopy using the Attofluor Digital Imaging and Photometry attachment of a Carl Zeiss Axiovert inverted microscope. Cells (COS-M6 or L) were grown on circular coverslips, rinsed and incubated with 5 μM Fura2/AM (Molecular Probes) in Hepes buffered saline (HPSS: 120 mM NaCl, 5.3 mM KCl, 0.8 mM MgSO4, 1.8 mM CaCl2, 11.1 mM glucose, 20 mM Hepes-Na, pH 7.4) at 37° C. for 30 min and then washed with HPSS twice at room temperature. The coverslips with the cells were then clamped into a circular open-bottom chamber and mounted onto the stage of the microscope. [Ca^2+ ]i in individual cells was monitored at room temperature exciting Fura2 alternatingly at 334 and 380 nm and recording emitted fluorescence at 520 nm. All reagents were diluted to their final concentrations in HPSS and applied to the cells by surface perfusion. […] The system allows data acquisition from up to 99 user-defined variably-sized regions of interest per field of view. Data from 15 to 30 individual cells were thus collected per experiment and experiments were repeated until data from sufficient cells were collected to generate an ensemble average that was calculated after transfer into Microsoft Excel 5.0. […]
For assessment of the rate at which [Ca^2+ ]i falls after an initial stimulation with agonist, t=0 is the time of agonist addition; for assessment of rate of influx of Ca^2+ into cells in which Ca^2+ stores had been depleted by agonist, t=0 is the time of Ca^2+ readdition. t1/2 /values were obtained by fitting the function A=A°exp(-t·ln2/t1/2)+B to the data points shown.
Cells that had been transfected with expression vectors carrying the M5 receptor and, as appropriate, either the newly cloned Htrp3 cDNA or the previously cloned Htrp1 cDNA (29), were grown on coverslips, loaded with the florescent Ca^2+ indicator dye Fura2 and tested for a response to CCh 40-48 hours after transfection. […] Changes in [Ca^2+ ]i as a function of time were recorded from individual cells, averaged and fitted by a first order decay function plus an offset.

Htrp3 [4] = molecular target: T1, Htrp3; assay: Thapsigargin (store depletion)-stimulated Ca2+ entry in Htrp3-transfected COS cells; format: cell-based; design: The full length cDNAs encoding the M5 muscarinic receptor (32), Htrp1 (29), Htrp3 and murine luteinizing hormone receptor; expressed in transfected cells; host or cells: COS-M6; details: 250 μM La3+; 500 nM TG, 1.8 mM Ca2+ added
Description: as §1

Htrp3 [5] = molecular target: T1, Htrp3; assay: Maitotoxin-stimulated Ca2+ influx into HEK 293 cells expressing Htrp3 versus control cells; format: cell-based; design: expressed in transfected cells; details: HEK 293 cells (FIG. 3)
Text: (§2) Trp proteins can be expressed in cells by standard recombinant means such as described in Innamoratti et al. (57), Gudermann et al. (58), Zhu et al. (59) and Ca^2+ influx monitored in single cells as described in Zhu et al. (30) or in a population of cells as described in Liao et al. (32). By doing this in the absence and presence of test compounds of which the effect on trp-mediated CCE can then be determined. An example is shown below (FIGS. 1 and 2) where human embryonic kidney cells (HEK-293 cells) expressing Htrp3 in stable form (HEKt3-9) are stimulated with carbachol and CCE is measured upon readdition of Ca^2+ to the extracellular medium. […] Not only agents that block calcium entry due to trp expression but also agents that stimulate calcium entry due to trp can be monitored in this way.
(§3) In the above examples, cell were suspended in extracellular solution at a concentration of 20×10^6 cells/ml, loaded with Fura2AM (5 μM, 30 min), washed with solution nominally free of calcium, twice, and suspended at 2×10^6 cells/ml. Intracellular Ca^2+ concentrations were then monitored as described in Liao et al (32). Times and concentrations of additions are depicted by the bars in the Figures. Control cells were HEK 293 cells expressing an unrelated protein. For further details see references 32 and 30. […]

M5 muscarinic receptor [6] = assay: Carbachol-induced capacitative Ca2+ influx in Ltk- cell lines expressing the M5 receptor (Fura2); format: cell-based; details: control Ltk- cell lines with M5 receptor only; average±SD, 20 cells each of 5 clones
Description: Mouse fibroblast Ltk^- cells (3×10^6 cells/100 mm dish) were transfected by the calcium phosphate/glycerol shock method with 5 μg each of the plasmids with the antisense cDNAs and 0.5 μg of the pcDNA3 carrying the M5 receptor. The control cells received only the M5 muscarinic receptor cDNA in pcDNA3. One day after transfection, the cells were trypsinized and diluted with Minimum Essential Medium--α medium containing 10% heat-inactivated fetal bovine serum, 50 units/ml penicillin, 50 μg/ml streptomycin, and 400 μg/ml G418 (GIBCO). Serial 1:4 dilutions of the cells were transferred into 96-well plates and G418 resistant clones were allowed to develop for two weeks in the G41 8-containing medium. Single colonies were then expanded and the cells used for Fura2 fluorescence measurement of muscarinic receptor induced [Ca^2+ ]i transients. […]
Intracellular Ca^2+ transients were measured in individual cells by fluorescence videomicroscopy using the Attofluor Digital Imaging and Photometry attachment of a Carl Zeiss Axiovert inverted microscope. […] [Ca^2+ ]i in individual cells was monitored at room temperature exciting Fura2 alternatingly at 334 and 380 nm and recording emitted fluorescence at 520 nm. […]

[7] = tested on: CCE endogenous to the HEK 293 cell; assay: Carbachol-stimulated endogenous CCE in control HEK 293 cells; format: cell-based, human; details: 25 μM SKF 96365
Text: as §2, §3

Htrp3 [8] = molecular target: T1, Htrp3; assay: Carbachol-stimulated CCE upon Ca2+ readdition in HEK-293 cells stably expressing Htrp3 (HEKt3-9); format: cell-based; design: expressed in transfected cells; details: 25 μM SKF 96365, HEKt3-9 cells, Ca2+ readdition (FIG. 2)
Text: as §2, §3

M5 muscarinic receptor [9] = assay: Carbachol-induced [Ca2+]i plateau in COS-M6 cells transfected with M5 receptor; format: cell-based; details: extracellular Ca2+ present
Description: COS-M6 cells were transfected by the DEAE-dextran/chloroquine shock method (14) as described (30) with changes. Sixteen hours prior to transfection, COS-M6 cells that had been kept subconfluent were plated at a density of 2×10^5 cells/well onto 25 mm glass coverslips placed at the bottom of the wells of 6-well plates. Cells in the individual wells were then transfected with 160 μl of transfection mixture (30) containing 0.1 μg pcDNA3 with the M5 receptor cDNA, a three fold molar excess of pcDNA3 vector carrying either the Htrp3, Htrp1 or mLHR cDNA to bring the final concentration of DNA to 4 μg/ml. Cell were used 40 to 48 hours after transfection.
Intracellular Ca^2+ transients were measured in individual cells by fluorescence videomicroscopy using the Attofluor Digital Imaging and Photometry attachment of a Carl Zeiss Axiovert inverted microscope. […] [Ca^2+ ]i in individual cells was monitored at room temperature exciting Fura2 alternatingly at 334 and 380 nm and recording emitted fluorescence at 520 nm. […] Data from 15 to 30 individual cells were thus collected per experiment and experiments were repeated until data from sufficient cells were collected to generate an ensemble average that was calculated after transfer into Microsoft Excel 5.0. […]

## [La+3] [La^3+, lanthanum]
[1]; 250 μM La3+, COS cells, agonist-stimulated
  Block of endogenous Ca2+ influx: 80-90%
[1]; 1 mM La3+, CCh-stimulated, Ca2+ readdition
  Inhibition of CCE endogenous to COS cells: fully inhibited
[2]
  Block of TG-stimulated Ca2+ entry: > 80%
Htrp3 [3]; 250 μM La3+, Htrp3-transfected COS cells
  Block of the difference due to Htrp3 influx: 30-40%
Htrp3 [3]; 1 mM La3+, COS-M6 cells, CCh-stimulated, Ca2+ readdition
  Inhibition of Htrp3-stimulated Ca2+ influx: fully inhibited
Htrp3 [4]
  Effect on TG-stimulated Ca2+ entry into Htrp3 transfected cells: significant residual

## maitotoxin
Htrp3 [5]
  Maitotoxin-stimulated Ca2+ influx, Htrp3-expressing cells versus control cells: several fold larger

## [Ni+2] [Ni^2+, nickel]
[1]; 2 mM Ni2+, COS cells
  Block of endogenous CCh-stimulated CCE: > 90%
Htrp3 [3]; 2 mM Ni2+, Htrp3-transfected COS cells
  Inhibition of CCh-stimulated influx due to Htrp3: 20%
Htrp3 [3]; 10 mM Ni2+, Htrp3-transfected COS cells
  Block of Ca2+ influx in Htrp3 cells: 85%

## C[N+](C)(C)CCOC(N)=O [CCh, carbachol]
M5 muscarinic receptor [6]
  Increase of [Ca2+]i through the capacitative influx path (at Ca2+ addition vs 30 sec later): 96 ± 5 nM

## COc1ccc(CCCOC(Cn2ccnc2)c2ccc(OC)cc2)cc1 (centres unmarked) [SKF 96365]
[7]
  Sensitivity of CCE endogenous to the HEK 293 cell (control): much less sensitive
Htrp3 [8]
  Block of CCE due to Htrp3 (extra-CCE): blocks selectively; also recorded: blocked

## CN1[C@@H]2CC[C@H]1C[C@@H](OC(=O)C(CO)c1ccccc1)C2 (some centres unmarked) [atropine]
M5 muscarinic receptor [9]
  Effect on carbachol-maintained [Ca2+]i plateau: blocked
